What was measured:
[1] = test system: WNT-TCF targets; test: RT-qPCR gene expression in HT29 cells; type: cell-based, human; conditions: 16h, batch 3, vs DMSO=1
Procedure: (§1) RT-qPCR was performed as in Melotti et al. (2014, supra) using BioRad equipment and reagents. Cells cultured in nitro were treated with the desired concentration of drug in DMEM-F12 and reduced serum (2.5% FBS) for 16h, unless otherwise noted, and collected in Trizol (Sigma) before total RNA extraction and cDNA synthesis. Primers were as in Table 1. HPRT (gene encoding Hypoxanthine phosphoribosyltransferase 1) and βACTIN were used as housekeeping controls for normalization.
(§2) Primary colon cells CC14, CC36 and mCC11, colon cancer cell lines DLD1, HT29, Ls174T, melanoma cell line MeWo, glioblastoma cell lines U87 and U251, and the lung cancer cell line H358 were cultured in DMEM-F12 with 10% FBS under standard in nitro conditions.

[2] = test system: Epigenetic regulators; test: RT-qPCR of epigenetic regulators in MeWo cells; type: cell-based, human; conditions: 0.5 µM
Procedure: as §1
The WNT-TCF-independent repressive activity of CAP2 on epigenetic regulators may be extrapolated to other cancer cells as it was also detected in HT29 and CC14 human colon cancer cells, in MeWo human melanoma cells as well as in U87 and U251 human glioma cells. In all these different human cancer cells, CAP2 (at 0.5 µM) modulated the expression of ZMYND8, SMARCAL1, TBLIXR1, SETD6 and TAF5Ls (Table 15).

[3] = test system: DLD1 cells; conditions: FACS, vs DMSO
Procedure: (§3) Cell were plated with different concentrations of compounds in a 96-well format and incubated in standard conditions for 6h and imaged. Active (cleaved) Caspase-3^+ apoptosis was determined using the BD Pharmigen kit and FACS (fluorescence-activated cell sorting).

[4] = test system: WNT-TCF targets; test: RT-qPCR gene expression in CC14 primary colon cancer cells; type: cell-based, human; parameters: cMYC expression: scale not given here
Procedure: as §1
Primary colon cells CC14 were cultured in DMEM-F12 with 10% FBS under standard in vitro conditions.
as §2

[5] = test system: WNT-TCF targets; test: Epistatic rescue with TCF^VP16, Ls174T; type: cell-based, human; conditions: CAP2 5µM, 16h
Procedure: Lentivectors expressing a TCF4^VP16 protein in a vector independently expressing GFP, or vector alone, plus reporter plasmids were transfected into cells. 72h after transfection cells were visually checked for expression of GFP. Independent batches of cells with >80% GFP expression were chosen for further experimentation and treated with or without compounds in DMEM-F12 (with 2.5% FBS) for 16h and collected in Trizol.
If the effects of CAP2 on WNT-TCF targets were specific, an activated form of TCF should rescue the repression since CAP2 is likely to act downstream of the APC destruction complex since it was found using an N'Δ form of βCATENIN that is APC insensitive. To activate this last step of canonical WNT signaling, a fusion between TCF and the potent transactivation domain of the viral VP16 protein, TCF^VP16 (Melotti et al., 2014, supra), was used to directly and positively regulate TCF targets. […] Rescue of LGR5, cMYC and ASCL2 repression by CAP2 (at 5µM) was also observed although there was variability between the cell types, similarly to the repression of CDKN1A (Table 8), although in all cases it reversed its enhancement by CAP2 treatment (Table 8).

[6] = test system: Epigenetic regulators; test: RT-qPCR gene expression in Ls174T cells, epigenetic regulators; type: cell-based, human; parameters: key: ratio normalized to DMSO control = 1; conditions: vs DMSO=1
Procedure: as §1
Nine components of the three pathways (WNT-TCF, BMP/TGFβ and chemokine/cytokine), and the top 6 repressed epigenetic regulators (ZMYND8, EED, SMARCAL1, TBLIXR1, SETD6 and TAF5L) (Figure 12) were tested for their modulation by dnTCF and their timed response to CAP2 treatment. […] DnTCF also repressed the expression of BMP4, SMAD6, IL8, CXCL3 and CXCL5, but expression of IL33 was enhanced. […] BMP4 and ID2 were also repressed at 2 and 4h but SMAD6 was repressed only at 4h. CXCL3 was already repressed at 2h, IL8 was little affected and IL33 and CXCL5 were enhanced at 2h. At 4 h only CXCL3 was repressed and the other three cytokine/chemokine genes tested (IL8, IL33 and CXCL5) were neither enhanced nor repressed. […] All values are normalized ratios with DMSO-controls, which were equated to 1 Table 14

[7] = test system: Ls174T cells; conditions: FACS, vs DMSO
Procedure: as §3

[8] = test system: WNT-TCF targets; test: RT-qPCR gene expression in CC36 primary colon cancer cells; type: cell-based, human; conditions: 16h, batch 3, vs DMSO=1
Procedure: as §1, §2

[9] = test system: WNT-TCF targets; test: RT-qPCR gene expression in H358 lung cancer cells; type: cell-based, human; conditions: 16h, batch 3, vs DMSO=1
Procedure: as §1, §2

[10] = CC14, 1.25µM, 16h, batch 3, vs DMSO=1
[11] = CC14, 2.5µM, 16h, batch 3, vs DMSO=1
[12] = CC14, 5µM, 16h, batch 3, vs DMSO=1
[13] = CC14, 10µM, 16h, batch 3, vs DMSO=1

Q: Which results are given for CC1=C(C)C(=O)O[C@@H]([C@](C)(O)[C@]2(O)CC[C@@]3(O)[C@@H]4CC=C5CC=CC(=O)[C@]5(C)[C@H]4CC[C@]23C)C1 [CAP2]?
A: AXIN2 expression ([1]; 1.25µM): 0.8; LGR5 expression ([1]; 1.25µM): 0.8; AXIN2 expression ([1]; 2.5µM): 0.9; LGR5 expression ([1]; 2.5µM): 0.7; AXIN2 expression ([1]; 5µM): 0.8; LGR5 expression ([1]; 5µM): 0.3; AXIN2 expression ([1]; 10µM): 0.4; LGR5 expression ([1]; 10µM): 0.1; EED expression [2]: 0.5; SETD6 expression [2]: 1; SMARCAL1 expression [2]: 0.2; TAF5L expression [2]: 0.8; TBL1XR1 expression [2]: 0.2; ZMYND8 expression [2]: 0.1; concentration from which activated Caspase3 labeled cells increase [3]: 2.5 µM; AXIN2 expression ([4]; 100 nM, Example 2 cells (CC14)): 0.7; LGR5 expression ([4]; 100 nM, Example 2 cells (CC14)): 0.3; cMYC expression ([4]; 100 nM, Example 2 cells (CC14)): 0.2; AXIN2 expression [4, 10]: 0.9; LGR5 expression [4, 10]: 1.0; AXIN2 expression [4, 11]: 1.5; LGR5 expression [4, 11]: 0.8; AXIN2 expression [4, 12]: 0.7; LGR5 expression [4, 12]: 0.1; AXIN2 expression [4, 13]: 0.7; LGR5 expression [4, 13]: 0.03; ASCL2 expression, TCF^VP16+ CAP2 / control + CAP2 [5]: 1.0; AXIN2 expression, TCF^VP16+ CAP2 / control + CAP2 [5]: 16.1; CDKN1A expression, TCF^VP16+ CAP2 / control + CAP2 [5]: 0.5; LGR5 expression, TCF^VP16+ CAP2 / control + CAP2 [5]: 0.7; cMYC expression, TCF^VP16+ CAP2 / control + CAP2 [5]: 2.7; EED expression ([6]; 5µM batch 3, 2h post-treatment): 1.5; SETD6 expression ([6]; 5µM batch 3, 2h post-treatment): 2.0; SMARCAL1 expression ([6]; 5µM batch 3, 2h post-treatment): 1.6; TAF5L expression ([6]; 5µM batch 3, 2h post-treatment): 0.8; TBL1XR1 expression ([6]; 5µM batch 3, 2h post-treatment): 2.6; ZMYND8 expression ([6]; 5µM batch 3, 2h post-treatment): 1.3; EED expression ([6]; 5µM batch 3, 4h post-treatment): 0.5; SETD6 expression ([6]; 5µM batch 3, 4h post-treatment): 0.7; SMARCAL1 expression ([6]; 5µM batch 3, 4h post-treatment): 0.8; TAF5L expression ([6]; 5µM batch 3, 4h post-treatment): 0.3; TBL1XR1 expression ([6]; 5µM batch 3, 4h post-treatment): 0.6; ZMYND8 expression ([6]; 5µM batch 3, 4h post-treatment): 0.5; concentration from which activated Caspase3 labeled cells increase [7]: 2.5 µM; AXIN2 expression ([8]; 1.25µM): 1.2; AXIN2 expression ([8]; 2.5µM): 0.6; AXIN2 expression ([8]; 5µM): 0.4; AXIN2 expression ([8]; 10µM): 0.4; AXIN2 expression ([9]; 1.25µM): 0.8; LEF1 expression ([9]; 1.25µM): 0.4; AXIN2 expression ([9]; 2.5µM): 0.7; LEF1 expression ([9]; 2.5µM): 0.6; AXIN2 expression ([9]; 5µM): 0.6; LEF1 expression ([9]; 5µM): 0.4; AXIN2 expression ([9]; 10µM): 0.4; LEF1 expression ([9]; 10µM): 0.2

Reference: EP3248604A1, “AGENTS FOR MODULATION OF WNT-TCF SIGNALLING AND USES THEREOF” (UNIVERSITE DE GENEVE, priority 2016, dated 2017)
